Experimental data taken from US20150258101A1 (Proximagen Limited, priority 2014, published 2015).
Counter-ions that a name gives are not always drawn.

Legend:
[1] = molecular target: T1, purified recombinantly expressed human SSAO (Homo sapiens, UniProt Q16853); assay: SSAO enzyme inhibition assay (benzylamine substrate; hydrogen peroxide/HRP-coupled or 14C aldehyde detection); format: biochemical; conditions: SSAO inhibitory activity, RT
T1 construct: made in house
T1 sequence (Q16853 1-763): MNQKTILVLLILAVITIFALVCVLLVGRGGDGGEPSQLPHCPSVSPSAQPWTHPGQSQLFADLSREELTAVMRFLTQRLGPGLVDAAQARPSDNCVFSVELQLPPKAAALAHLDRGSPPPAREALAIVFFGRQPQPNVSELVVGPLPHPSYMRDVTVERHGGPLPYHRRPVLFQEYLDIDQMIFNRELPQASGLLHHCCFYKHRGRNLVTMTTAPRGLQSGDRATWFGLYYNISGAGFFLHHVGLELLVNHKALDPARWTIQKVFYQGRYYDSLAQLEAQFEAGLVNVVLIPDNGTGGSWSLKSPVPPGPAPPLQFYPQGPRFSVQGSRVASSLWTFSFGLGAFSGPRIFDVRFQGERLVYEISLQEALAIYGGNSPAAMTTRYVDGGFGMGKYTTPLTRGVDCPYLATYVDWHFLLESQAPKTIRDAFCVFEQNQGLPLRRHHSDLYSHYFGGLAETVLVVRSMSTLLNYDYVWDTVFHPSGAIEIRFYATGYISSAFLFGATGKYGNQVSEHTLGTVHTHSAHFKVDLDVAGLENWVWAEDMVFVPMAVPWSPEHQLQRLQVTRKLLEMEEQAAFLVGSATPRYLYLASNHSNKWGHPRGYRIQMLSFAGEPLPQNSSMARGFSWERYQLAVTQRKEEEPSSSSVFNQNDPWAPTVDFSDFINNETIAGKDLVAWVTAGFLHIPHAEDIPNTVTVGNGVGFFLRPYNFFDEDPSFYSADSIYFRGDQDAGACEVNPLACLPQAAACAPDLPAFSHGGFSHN
Procedure, shortened: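 IC50 values came from a four-parameter logistic fit of % signal decrease versus DMSO control, with no-enzyme background subtracted. Two read-outs were used with human recombinant SSAO after ~15 min compound pre-incubation at RT. In the H2O2/HRP-Amplex read-out, enzyme was 1 ug/ml and benzylamine 100 uM (pH 7.4 phosphate), with resorufin fluorescence followed 1-2 h. In the 14C-benzaldehyde read-out (PBS), enzyme was 10 ug/ml and benzylamine 40 uM, run 1 h then acid-stopped.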

[2] = molecular target: T2, human ether a go-go related gene (hERG) K+ channel (Homo sapiens, UniProt Q12809); assay: hERG assay, IonWorks patch clamp electrophysiology; format: cell-based; conditions: Chinese Hamster Lung cell line stably expressing hERG; max assay concentration 11 uM
T2 construct: a Chinese Hamster Lung cell line stably expressing the full length hERG channel; expressed in transfected cells; host or cells: Chinese Hamster Lung cell line
Description: Compounds of the invention were tested for inhibition of the human ether a go-go related gene (hERG) K^+ channel using IonWorks patch clamp electrophysiology. 8 Point concentration-response curves were generated on two occasions using 3-fold serial dilutions from the maximum assay concentration (11 uM). Electrophysiological recordings were made from a Chinese Hamster Lung cell line stably expressing the full length hERG channel. Single cell ion currents were measured in the perforated patch clamp configuration (100 ug/mL amphoterocin) at room temperature using an IonWorks Quattro instrument. The internal solution contained 140 mM KCl, 1 mM MgCl2, 1 mM EGTA and 20 mM HEPES and was buffered to pH 7.3. The external solution contained 138 mM NaCl, 2.7 mM KCl, 0.9 mM CaCl2, 0.5 mM MgCl2, 8 mM Na2HPO4 and 1.5 mM KH2PO4, and was buffered to pH 7.3. […] This sequence was repeated 5 times at a frequency of 0.25 Hz. Currents were measured from the tail step at the 5th pulse, and referenced to the holding current. Compounds were incubated for 6-7 min prior to a second measurement of the hERG signal using an identical pulse train. […] A control compound (quinidine) was used (see Table 20 below).

T2 sequence (Q12809 whole entry): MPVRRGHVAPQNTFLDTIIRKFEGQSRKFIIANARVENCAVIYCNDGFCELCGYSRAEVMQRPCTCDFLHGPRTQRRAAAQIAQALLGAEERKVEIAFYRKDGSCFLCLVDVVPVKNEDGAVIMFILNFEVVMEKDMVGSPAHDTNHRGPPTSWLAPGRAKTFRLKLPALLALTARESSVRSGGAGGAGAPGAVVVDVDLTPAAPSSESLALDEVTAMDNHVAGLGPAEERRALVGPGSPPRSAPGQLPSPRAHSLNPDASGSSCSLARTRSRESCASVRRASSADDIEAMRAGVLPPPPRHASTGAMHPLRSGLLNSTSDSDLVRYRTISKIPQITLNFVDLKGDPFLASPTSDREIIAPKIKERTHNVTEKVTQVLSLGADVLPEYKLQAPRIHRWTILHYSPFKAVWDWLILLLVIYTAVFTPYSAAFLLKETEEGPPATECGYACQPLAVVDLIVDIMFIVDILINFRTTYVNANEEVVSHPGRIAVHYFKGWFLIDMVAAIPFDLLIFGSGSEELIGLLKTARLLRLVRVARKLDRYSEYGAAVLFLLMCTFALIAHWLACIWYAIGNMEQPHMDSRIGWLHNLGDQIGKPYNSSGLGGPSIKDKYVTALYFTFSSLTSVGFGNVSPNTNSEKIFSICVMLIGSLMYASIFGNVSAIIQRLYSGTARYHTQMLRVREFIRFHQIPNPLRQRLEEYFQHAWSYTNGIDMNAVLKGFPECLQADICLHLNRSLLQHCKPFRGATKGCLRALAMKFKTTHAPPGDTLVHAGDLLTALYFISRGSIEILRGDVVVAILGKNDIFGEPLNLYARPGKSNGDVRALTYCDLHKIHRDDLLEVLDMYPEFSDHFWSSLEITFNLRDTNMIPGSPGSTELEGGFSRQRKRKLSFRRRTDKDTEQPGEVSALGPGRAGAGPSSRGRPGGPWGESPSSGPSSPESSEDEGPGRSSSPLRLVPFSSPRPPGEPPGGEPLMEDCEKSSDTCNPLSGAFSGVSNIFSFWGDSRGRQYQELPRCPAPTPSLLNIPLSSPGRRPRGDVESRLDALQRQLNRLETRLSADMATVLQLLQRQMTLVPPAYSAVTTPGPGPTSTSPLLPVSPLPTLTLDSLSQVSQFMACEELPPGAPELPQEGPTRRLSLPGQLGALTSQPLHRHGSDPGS

| SMILES | IC50 [1] | IC50 [2] |
| --- | --- | --- |
| Clc1ccc(-n2c(-c3cnc(N4CCNCC4)o3)nc3ccncc32)cc1 [Example 18, 1-{5-[3-(4-Chlorophenyl)-3H-imidazo[4,5-c]pyridin-2-yl]-1,3-oxazol-2-yl}piperazine dihydrochloride] | 50 to 200 nM | > 10000 nM |
| CS(=O)(=O)N1CCN(c2ccc(-c3nc4ccncc4n3-c3ccc(F)cc3)cn2)CC1 [Example 89, 1-{5-[3-(4-Fluorophenyl)-3H-imidazo[4,5-c]pyridin-2-yl]pyridin-2-yl}-4-methanesulfonylpiperazine] | < 50 nM | > 10000 nM |
| Clc1ccc(-n2c(-c3cnc(NC4CCOCC4)nc3)cc3ccncc32)cc1 [Example 139, 5-[1-(4-Chlorophenyl)-1H-pyrrolo[2,3-c]pyridin-2-yl]-N-(oxan-4-yl)pyrimidin-2-amine] | < 50 nM | 100 to 1000 nM |
| c1ccc(-n2c(-c3cnc(N4CCOCC4)nc3)cc3ccncc32)cc1 [Example 131, 4-(5-{1-Phenyl-1H-pyrrolo[2,3-c]pyridin-2-yl}pyrimidin-2-yl)morpholine] |  | 1000 to 10000 nM |
| Cc1ccc(-n2c(-c3cnc(NC4CCOCC4)nc3)nc3ccncc32)cc1 [Example 119, 5-[3-(4-Methylphenyl)-3H-imidazo[4,5-c]pyridin-2-yl]-N-(oxan-4-yl)pyrimidin-2-amine; bis(trifluoroacetic acid)] | 50 to 200 nM |  |
| Fc1ccc(-n2c(-c3cnc(N4CCOCC4)nc3)nc3ccncc32)c(Cl)c1 [Example 56, 4-{5-[3-(2-Chloro-4-fluorophenyl)-3H-imidazo[4,5-c]pyridin-2-yl]pyrimidin-2-yl}morpholine] | 200 to 1200 nM |  |
| Cc1ccc(-n2c(-c3cnc(N4CCOCC4)cc3C)nc3ccncc32)cn1 [Example 107, 4-{4-Methyl-5-[3-(6-methylpyridin-3-yl)-3H-imidazo[4,5-c]pyridin-2-yl]pyridin-2-yl}morpholine] | < 50 nM |  |
| O=C(c1ccc(-c2nc3ccncc3n2-c2ccc(Cl)cc2)cn1)N1CCOCC1 [Example 6, 4-({5-[3-(4-Chlorophenyl)-3H-imidazo[4,5-c]pyridin-2-yl]pyridin-2-yl}carbonyl) morpholine] | 200 to 1200 nM |  |
| Clc1ccc(-n2c(-c3cnc(N4CCNCC4)s3)nc3ccncc32)cc1 [Example 19, 1-{5-[3-(4-Chlorophenyl)-3H-imidazo[4,5-c]pyridin-2-yl]-1,3-thiazol-2-yl}piperazine] | 50 to 200 nM |  |
| Cc1cc(N2CCOCC2)ncc1-c1nc2ccncc2n1-c1ccc(Cl)cc1F [Example 22, 4-{5-[3-(4-Chloro-2-fluorophenyl)-3H-imidazo [4,5-c]pyridin-2-yl]-4-methylpyridin-2-yl}morpholine] | < 50 nM |  |
| O=c1cc(-c2nc3ccncc3n2-c2ccc(F)cc2)ccn1C1CC1 [Example 115, 1-Cyclopropyl-4-[3-(4-fluorophenyl)-3H-imidazo[4,5-c]pyridin-2-yl]-1,2-dihydropyridin-2-one] | < 50 nM |  |
| c1cc2nc(-c3cnc(N4CCOCC4)nc3)n(-c3ccc(C4CC4)cc3)c2cn1 [Example 96, 4-{5-[3-(4-Cyclopropylphenyl)-3H-imidazo[4,5-c]pyridin-2-yl]pyrimidin-2-yl}morpholine] | 50 to 200 nM |  |
| Brc1ccc(-n2c(-c3cnc(N4CCOCC4)nc3)nc3ccncc32)cc1 [Example 59, 4-{5-[3-(4-Bromophenyl)-3H-imidazo[4,5-c]pyridin-2-yl]pyrimidin-2-yl}morpholine] | 50 to 200 nM |  |
| Fc1ccccc1-n1c(-c2ccc(N3CCOCC3)nc2)nc2ccncc21 [Example 68, 4-{5-[3-(2-Fluorophenyl)-3H-imidazo[4,5-c]pyridin-2-yl]pyridin-2-yl}morpholine] | < 50 nM |  |
| COc1nc(N2CCOCC2)ccc1-c1nc2ccncc2n1-c1ccc(F)cc1 [Example 28, 4-{5-[3-(4-Fluorophenyl)-3H-imidazo[4,5-c]pyridin-2-yl]-6-methoxypyridin-2-yl} morpholine] | 50 to 200 nM |  |
| Cc1ccc(-n2c(-c3ccc(N4C[C@@H](C)O[C@@H](C)C4)nc3)nc3ccncc32)cn1 [Example 103, (2R,6S)-2,6-Dimethyl-4-{5-[3-(6-methylpyridin-3-yl)-3H-imidazo[4,5-c]pyridin-2-yl]pyridin-2-yl}morpholine; tris(trifluoroacetic acid)] | 50 to 200 nM |  |

| SMILES | IC50 [1] | IC50 [2] |
| --- | --- | --- |
| NC(=O)N1CCCN(c2ccc(-c3nc4ccncc4n3-c3ccc(F)cc3)cn2)CC1 [Example 94, 4-{5-[3-(4-Fluorophenyl)-3H-imidazo[4,5-c]pyridin-2-yl]pyridin-2-yl}-1,4-diazepane-1-carboxamide] | 200 to 1200 nM |  |
| NC1CCN(c2ccc(-c3nc4ccncc4n3-c3ccc(Cl)cc3)cn2)CC1 [Example 8, 1-{5-[3-(4-Chlorophenyl)-3H-imidazo[4,5-c]pyridin-2-yl]pyridin-2-yl}piperidin-4-amine] | < 50 nM |  |
| Fc1ccc(-n2c(-c3ccc(OC4CCOCC4)nc3)nc3ccncc32)cc1 [Example 113, 5-[3-(4-Fluorophenyl)-3H-imidazo[4,5-c]pyridin-2-yl]-2-(oxan-4-yloxy)pyridine] | < 50 nM |  |
| Clc1ccc(-n2c(-c3cncnc3)cc3ccncc32)cc1 [Example 123] | < 50 nM |  |
| Cc1cnccc1-c1cc2ccncc2n1-c1ccc(Cl)cc1 [Example 154, 4-[1-(4-Chlorophenyl)-1H-pyrrolo[2,3-c]pyridin-2-yl]-3-methylpyridine] | < 50 nM |  |
| CCOCCNc1ncc(-c2nc3ccncc3n2-c2ccc(F)cc2)cn1 [Example 42, N-(2-Ethoxyethyl)-5-[3-(4-fluorophenyl)-3H-imidazo [4,5-c]pyridin-2-yl]pyrimidin-2-amine] | 50 to 200 nM |  |
| Cc1ccc(-n2c(-c3cnc(N4CCOCC4)nc3)cc3ccncc32)cc1 [Example 130, 4-{5-[1-(4-Methylphenyl)-1H-pyrrolo[2,3-c]pyridin-2-yl]pyrimidin-2-yl}morpholine] | 50 to 200 nM |  |
| Cc1nc(N2CCOCC2)ccc1-c1nc2ccncc2n1-c1ccc(F)cc1 [Example 108, 4-{5-[3-(4-Fluorophenyl)-3H-imidazo[4,5-c]pyridin-2-yl]-6-methylpyridin-2-yl}morpholine] | 200 to 1200 nM |  |
| CN1CCN(C(=O)c2ccc(-c3cc4ccncc4n3-c3ccc(Cl)cc3)cc2)CC1 [Example 125, 1-({4-[1-(4-Chlorophenyl)-1H-pyrrolo[2,3-c]pyridin-2-yl]phenyl}carbonyl)-4-methylpiperazine] | 200 to 1200 nM |  |
| Cc1cc(N)ncc1-c1cc2ccncc2n1-c1ccc(Cl)cc1 [Example 141, 5-[1-(4-Chlorophenyl)-1H-pyrrolo[2,3-c]pyridin-2-yl]-4-methylpyridin-2-amine; bis(trifluoroacetic acid)] | 50 to 200 nM |  |
| Cc1ccc(-n2c(-c3cnc(N4CCOCC4)nc3)nc3ccncc32)cn1 [Example 58, 4-{5-[3-(6-Methylpyridin-3-yl)-3H-imidazo[4,5-c]pyridin-2-yl]pyrimidin-2-yl}morpholine] | 200 to 1200 nM |  |
| Fc1ccc(-n2c(-c3ccc(OC4CCOC4)nc3)nc3ccncc32)cc1 (stereo not shown) [Example 112, 5-[3-(4-Fluorophenyl)-3H-imidazo[4,5-c]pyridin-2-yl]-2-(oxolan-3-yloxy)pyridine] | < 50 nM |  |
| O=c1ccc(-c2nc3ccncc3n2-c2ccc(Cl)cc2F)c[nH]1 [Example 35, 5-[3-(4-Chloro-2-fluorophenyl)-3H-imidazo[4,5-c]pyridin-2-yl]-1,2-dihydropyridin-2-one] | 200 to 1200 nM |  |
| Cn1cc(-c2nc3ccncc3n2-c2ccc(Cl)cc2)ccc1=O [Example 33, 5-[3-(4-Chlorophenyl)-3H-imidazo[4,5-c]pyridin-2-yl]-1-methyl-1,2-dihydropyridin-2-one] | 200 to 1200 nM |  |
| Cc1cc(NC2CCOCC2)ncc1-c1nc2ccncc2n1-c1ccc(F)cc1 [Example 100, 5-[3-(4-Fluorophenyl)-3H-imidazo[4,5-c]pyridin-2-yl]-4-methyl-N-(oxan-4-yl)pyridin-2-amine] | 200 to 1200 nM |  |
